Measurements taken from ChEMBL document CHEMBL1275373, “Identification by high-throughput screening of inhibitors of Schistosoma mansoni NAD(+) catabolizing enzyme” (Bioorg Med Chem, 2010).
Calls of active or inactive are those of the source. No cut-off for these calls is given here.

Columns and labels:
[1] = system: Schistosoma mansoni; experiment: Inhibition of Schistosoma mansoni recombinant NAD+ glycohydrolase expressed in Pichia pastoris at up to 100 uM by continuous fluorometric method
[2] = Inhibition of Schistosoma mansoni recombinant NAD+ glycohydrolase expressed in Pichia pastoris by continuous fluorometric method
[3] = Competitive inhibition of Schistosoma mansoni recombinant NAD+ glycohydrolase expressed in Pichia pastoris by Michaelis-Menten equation analysis

| Compound | IC50 [2] | further results |
| --- | --- | --- |
| CCN(CC)CCCC(C)Nc1ccnc2cc(Cl)ccc12 (configuration not stated) | – | Activity [1]: inactive |
| CN(C)CC(=O)Nc1ccc2[nH]c(=O)c3ccccc3c2c1 | – | inhibition [1]: < 10% |
| COc1cc(/C=C/C(=O)CC(=O)/C=C/c2ccc(O)c(OC)c2)ccc1O | – | inhibition [1]: < 10% |
| Cc1ccc(C(=O)Nc2ccc(S(=O)(=O)O)c3cc(S(=O)(=O)O)cc(S(=O)(=O)O)c23)cc1NC(=O)c1cccc(NC(=O)Nc2cccc(C(=O)Nc3cc(C(=O)Nc4ccc(S(=O)(=O)O)c5cc(S(=O)(=O)O)cc(S(=O)(=O)O)c45)ccc3C)c2)c1 | – | inhibition [1]: < 10% |
| O=C(C1CCCCC1)N1CC(=O)N2CCc3ccccc3C2C1 (configuration not stated) | – | inhibition [1]: < 10% |
| O=C1NC(=O)c2cccc3cccc1c23 | – | inhibition [1]: < 10% |
| OC(c1cc(C(F)(F)F)nc2c(C(F)(F)F)cccc12)C1CCCCN1 (configuration not stated) | – | Activity [1]: inactive |
| Oc1cc(O)c2cc(O)c(-c3ccc(O)c(O)c3)[o+]c2c1 [CYANIDIN] | 2.3 µM | Ki [3]: 2100 nM |
| Oc1cc(O)c2cc(O)c(-c3cc(O)c(O)c(O)c3)[o+]c2c1 [DELPHINIDIN] | 6 µM | – |
| COc1ccc(-c2ccc3c(O)cc(O)cc3[o+]2)cc1O [DIOSMETINIDIN] | 9.9 µM | – |
| Oc1ccc2cc(O)c(-c3ccc(O)c(O)c3)[o+]c2c1 [FISETINIDIN] | 6.4 µM | – |
| OC[C@H]1O[C@@H](Oc2cc3c(O)cc(O)cc3[o+]c2-c2ccc(O)c(O)c2)[C@H](O)[C@@H](O)[C@@H]1O [KUROMANIN] | 8.2 µM | – |
| Oc1cc(O)c2ccc(-c3ccc(O)c(O)c3)[o+]c2c1 [LUTEOLINIDIN] | 5.9 µM | – |
| O=c1cc(-c2ccc(O)c(O)c2)oc2cc(O)cc(O)c12 [LUTEOLIN] | 8.4 µM | – |
| COc1cc(-c2[o+]c3cc(O)cc(O)c3cc2O)cc(OC)c1O [MALVIDIN] | 8 µM | – |
| O=c1c(O)c(-c2cc(O)c(O)c(O)c2)oc2cc(O)cc(O)c12 [MYRICETIN] | 22 µM | – |
| COc1cc(-c2[o+]c3cc(O)cc(O)c3cc2O)cc(O)c1O [PETUNIDIN] | 37.8 µM | – |
| Oc1cc(O)cc(/C=C/c2ccc(O)c(O)c2)c1 [PICEATANNOL] | > 100 µM | – |
| Oc1ccc(-c2[o+]c3cc(O)c(O)c(O)c3cc2O)cc1O [QUERCETAGETINIDIN] | 6.1 µM | – |
| O=c1c(O)c(-c2ccc(O)c(O)c2)oc2cc(O)cc(O)c12 [QUERCETIN] | 3.9 µM | – |

Second part, led by results:

| IC50 [2] | Compound | further results |
| --- | --- | --- |
| > 100 µM | Oc1cc(O)c2c(c1)OC(c1ccc(O)c(O)c1)C(O)C2 (configuration not stated) [CATECHIN] | – |
| 4.4 µM | Oc1ccc(-c2[o+]c3cc(O)cc(O)c3cc2O)cc1 [PELARGONIDIN] | – |
| 1.3 µM | O=c1c(O)c(-c2ccc(O)c(O)c2)oc2cc(O)c(O)c(O)c12 [QUERCETAGETIN] | – |
| > 100 µM | Oc1ccc(/C=C/c2cc(O)cc(O)c2)cc1 [RESVERATROL] | – |
| 5.8 µM | O=c1c(O)c(-c2cc(O)c(O)c(O)c2)oc2cc(O)ccc12 [ROBINETIN] | – |
| 19.5 µM | O=C1c2c(O)cc(O)cc2OC(c2ccc(O)c(O)c2)C1O (configuration not stated) [TAXIFOLIN] | – |
